pIC50: −log10 of the molar value.
Assays:
[1] = MTT cell viability / IC50 in growth media; format: cell-based, human; conditions: human, HepG2 cells, 10 μM; for viability at 4 day, 10 µM: day 4; for viability at 2 days, 10 µM: treatment for 2 days
Protocol: (§1) The cytotoxic effects of the synthesized drugs on the HepG2 cells were tested by MTT (Thiazolyl Blue Tetrazolium Bromide) method. HepG2 cells were seeded 2×10^4 cells per well in 96-well plate in 200 μL growth media. […] After the incubation period, 5 mg/ml MTT (M2128, Sigma-Aldrich) solution in PBS (10 μL) was added to each well. After 1 hr, the MTT solution and all media were removed from the wells. 100 μl of DMSO was added and mixed to dissolve the formazan crystals. Cell viability was analysed by measuring the absorbance of the dissolved formazan in a microplate reader at a wavelength of 570 nm with microplate reader (Hidex Sense Beta Plus).
(§2) HepG2 cells were maintained and used with RPMI 1640 (R2405, Sigma-Aldrich) supplemented with 10% fetal bovine serum (F7524, Sigma-Aldrich), 1% P/S (P4333, Sigma-Aldrich). 20,000 cells per well of HepG2 cells were seeded into a 96-well plate and triplicated for MTT assay and LDH assay. Cell viability was measured by MTT assay (M6494, ThermoFisher) and cytotoxicity was measured by LDH assay kit (ab65393, abcam) by following manufacturer's instructions. Optical density (O.D) was numerated using a microplate reader (Hidex Sense Meta Plus).

HepG2 cells [2] = test: MTT cell viability / IC50 in growth media; format: cell-based, human; conditions: 30 μM to 30 nM; for pIC50: Homo sapiens, 48 h, HepG2, treatment for 2 days
Protocol: as §1, §2

PARP = test: Western blot, cleaved PARP; format: cell-based, human; conditions: 10 μM, 2 days
Protocol: (§3) HepG2 cells were seeded into a 6-well plate at 400,000 cells per well. After treatment with 10 μM of JNK-IN-5A and its derivatives for two days, lysates were harvested with CelLytic M (C2978, Sigma-Aldrich). 20 μg lysate was prepared with 2× Laemmli Sample Buffer (1610737, Biorad). SDS PAGE were performed using Mini-PROTEAN® TGX™ Precast Gels (Bio-Rad) and transferred using Trans-Blot® Turbo™ Transfer System (Bio-Rad). Primary antibody, PARP (95425, Cell signalling), Caspase 3 (ab32042, abcam), Bcl-2 (ab182858), STAT1 (HPA000982, Merk), PKL (06653, Sigma), PKM (4053S, Cell signalling), GAPDH (ab8245, abcam), P53 (ab32389, abcam), p21 (ab109199, abcam), p-S349 p62 (ab211324, abcam), p62 (ab109012, abcam), c-Myc (ab32072, abcam), GPX4 (ab125066, abcam), MMP9 (MA5-32705, Invitrogen), β-actin (ab8227, abcam), and α-tubulin (ab7291, abcam) were blotted overnight and Goat Anti-Rabbit HRP (ab205718) and goat anti-mouse IgG-HRP (sc2005, Santa Cruz Biotechnology, Inc.) were blotted for secondary antibody for one hour. ImageQuantTMLAS 500 (29-0050-63, GE) was used to detect protein bands.

Caspase 3 = test: Western blot, active caspase 3; format: cell-based, human; conditions: 10 μM, 2 days
Protocol: as §3

JNK1/2/3 = test: Western blot, JNK1/2/3 P54 and p46 isoforms; format: cell-based, human; conditions: 10 μM, 2 days
Protocol: HepG2 cells were seeded into a 6-well plate at 400,000 cells per well. After treatment with 10 μM of JNK-IN-5A and its derivatives for two days, lysates were harvested with CelLytic M (C2978, Sigma-Aldrich). […] SDS PAGE were performed using Mini-PROTEAN® TGX™ Precast Gels (Bio-Rad) and transferred using Trans-Blot® Turbo™ Transfer System (Bio-Rad). […] ImageQuantTMLAS 500 (29-0050-63, GE) was used to detect protein bands.

c-Myc = test: Nuclear protein western blot, c-Myc; format: cell-based, human; conditions: 10 μM, 2 days
Protocol: as §3

p21 = test: Nuclear protein western blot, p21; format: cell-based, human; conditions: 10 μM, 2 days
Protocol: as §3

GPX4 = test: Western blot, GPX4; format: cell-based, human; conditions: compared to the control
Protocol: as §3

HepG2 cells [3] = test: FACs analysis with PI staining (cell cycle); format: cell-based, human; conditions: for cell cycle distribution / arrest: PI FACS
Protocol: 400,000 HepG2 cells were seeded in a 6-well plated and treated with 10 μM of the compounds for 2 days. Cells were fixed with 70% ethanol and stained with 50 μg/ml PI. Prepared cells were analysed using BD FACS Canto II Flow Cytometry system at PE-A channel 10,000 cells per group. The data was histogram plotted with BD FACSDiva 9.0.

HepG2 cells [4] = test: Mitochondrial membrane potential assay (TMRE); format: cell-based, human; conditions: 10 μM, one day
Protocol: (§4) HepG2 cells were seeded into a 6-well plate at 400,000 cells per well. After treatment with the compounds at desired concentration and time, TMRE (ab113852, abcam), Autophagy (ab139484, abcam), ROS (ab113851, abcam), and Lipid peroxidation (ab243377, abcam) assay were performed according to manufacturer's instructions. Fluorescence images were taken using ZOE™ Fluorescent Cell Imager (Biorad) and ROI of fluorescence intensity was measured and calculated by Image J. For microplate reader florescence assay, 40,000 of HepG2 cells were seeded into a 96-well plate and triplicated. GFP (Ex480 nm, Em530 nm) and RFP (Ex549 nm, Em574 nm) were measured using a microplate reader (Hidex Sense Meta Plus).

HepG2 cells [5] = test: Autophagy assay; format: cell-based, human; conditions: 10 μM, one day
Protocol: as §4

HepG2 cells [6] = test: Invasion assay (transwell); format: cell-based, human
Protocol: The effects of the treatment with the compounds on the invasion ability of HepG2 and Huh7 cells were determined by 8 μm pores transwell chamber (Corning™ 3464, USA).
(§5) Transwell membrane was coated with 100 μl collagen (Sigma C3867, USA) diluted with PBS to a concentration of 1 mg/ml. After overnight incubation at 4° C., the collagen solution was discarded and the membrane was washed with PBS. 100,000 cells in 200 μl serum free media together with the tested compounds were added into the upper well and 600 μl of 10% FBS supplemented growth media was added to the lower well as an invasive attractant in a 24-well plate. Cells were incubated at 37° C. in a CO2 incubator for one day. The cells were fixed with 3.7% formaldehyde for 30 minutes at room temperature and washed with PBS twice. The cells were stained with 1% crystal violet in PBS for 20 minutes and residual cells in inner membrane were swabbed gently with a cotton swab. Invaded cells located at the outer membrane were imaged by ZOE Fluorescent Cell Imager (Bio-Rad, USA) and counted by image. For wound healing assay, 100,000 cells per well were seeded into 24-well plates and grown until 95-100% confluent. Linear wound was created by using a 200 μl pipette tip. Image was recorded at the time point of day 0 until control group wound closure with 1 μM of compounds by ZOE Fluorescent Cell Imager (Bio-Rad, USA). Wound areas were measured using ImageJ software.

HepG2 cells [7] = test: Wound healing assay; format: cell-based; conditions: Homo sapiens, HepG2, 96 h, day 4, untreated 100% wound closure, read-out: wound healing delayed by
Protocol: as §5

Row | SMILES | viability at 4 day, 10 µM [1] [%] | viability at 2 days, 10 µM [1] [%] | dose dependence of cell viability (HepG2 cells [2]) | pIC50 (HepG2 cells [2]) | increase in cleaved PARP vs untreated control (PARP) [times] | active caspase 3 levels (Caspase 3) [times] | JNK1/2/3 p46 expression (JNK1/2/3) [times] | nuclear c-Myc expression (c-Myc) | p21 nuclear localization (p21) | GPX4 expression levels (GPX4) | cell cycle distribution / arrest (HepG2 cells [3]) | Cell population G0/G1 (HepG2 cells [3]; PI FACs, 10 μM, 2 days) | Cell population G2/M (HepG2 cells [3]; PI FACs, 10 μM, 2 days) | Cell population S (HepG2 cells [3]; PI FACs, 10 μM, 2 days) | mitochondrial membrane potential (HepG2 cells [4]) | autophagy GFP signals (HepG2 cells [5]) | inhibition at 1 µM (HepG2 cells [6]; Homo sapiens, HepG2, 24 hr, read-out: invasiveness reduced by) [%] | inhibition at 1 µM (HepG2 cells [7]) [%] | invasiveness reduced by (HepG2 cells [6]; 1 μM, 24 hr)
1 | CNC(=O)c1cc(Oc2ccc(NC(=O)Nc3ccc(Cl)c(C(F)(F)F)c3)c(F)c2)ccn1 [Regorafenib, regorafenib, reference compound] | 13.4 | 41.1 | dose-dependent decrease in cell viability | 5.23 | 16 | 3.61 | 0.65 | decreased | not | significantly higher | did not alter the cell cycle distribution significantly | 70.5 | 14.9 | 9.7 | decrease | did not induce autophagy | 21 | 44.8 | 
2 | CNC(=O)c1cc(Oc2ccc(NC(=O)Nc3ccc(Cl)c(C(F)(F)F)c3)cc2)ccn1 [Sorafenib, sorafenib, reference compound] | 19.2 | 51 | dose-dependent decrease in cell viability | 5.06 | 10 | 4.35 | 0.81 | decreased | not | significantly higher | did not alter the cell cycle distribution significantly |  |  | 10.1 | decrease | did not induce autophagy |  | 35 | 28.7%±2.9

Reference: patent US20260234159A1, “SMALL MOLECULE TREATMENT OF FATTY LIVER DISEASE AND HCC” (SCANDIEDGE THERAPEUTICS AB, priority 2023, published 2026)
